Source: patent US20050170391A1, “TAUT1 transporters expressed in blood brain barrier cells” (Xenoport, Inc., priority 2004, published 2005)

Molecular target: T1, TAUT1 (Homo sapiens, UniProt P31641)
T1 sequence (P31641 1-620): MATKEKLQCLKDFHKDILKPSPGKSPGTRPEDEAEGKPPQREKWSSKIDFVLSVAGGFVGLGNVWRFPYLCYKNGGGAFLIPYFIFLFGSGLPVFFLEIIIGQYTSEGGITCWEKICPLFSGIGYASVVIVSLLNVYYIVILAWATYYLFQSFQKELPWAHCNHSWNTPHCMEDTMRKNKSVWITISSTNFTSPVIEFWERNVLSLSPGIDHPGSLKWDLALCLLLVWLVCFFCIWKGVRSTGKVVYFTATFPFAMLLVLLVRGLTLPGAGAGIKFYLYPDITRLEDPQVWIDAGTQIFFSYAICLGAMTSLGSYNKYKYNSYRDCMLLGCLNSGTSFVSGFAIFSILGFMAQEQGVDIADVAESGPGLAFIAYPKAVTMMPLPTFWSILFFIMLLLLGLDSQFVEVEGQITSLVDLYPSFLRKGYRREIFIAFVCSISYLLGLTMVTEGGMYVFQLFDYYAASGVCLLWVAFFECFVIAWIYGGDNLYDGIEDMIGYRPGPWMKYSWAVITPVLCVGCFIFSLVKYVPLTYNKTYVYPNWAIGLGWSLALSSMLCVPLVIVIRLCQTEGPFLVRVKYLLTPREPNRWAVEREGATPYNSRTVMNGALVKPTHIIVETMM
Experiment: hTAUT1 competition uptake assay in HEK-TREx-TAUT1 cells
Format: cell-based
Parameters: expressed in transfected cells; host or cells: HEK-TREx cells (HEK-TREx-TAUT1 inducible line)
Settings: HEK-TREx-TAUT1 cells induced with tetracycline; ^3H-GABA radiolabel (taurine: ^3H-taurine per Example 9); 15 min, room temperature
Procedure: A modified competition uptake assay was developed to determine the ability of a test compound(s) to inhibit the uptake of radiolabeled substrates into HEK-TREx-TAUT1 cells induced to over-express hTAUT. The results are stated as affinities (IC50).
The competition uptake assay were prepared as follows: Compounds were prepared for assay by diluting a 100 mM stock concentration (in DMSO) to the appropriate working concentration. Typically, seven-point dose response curves were prepared starting at a final assay concentration of 1 mM and carrying out three-fold dilutions. These dilutions were prepared by making a working “compound” plate that contained a 2× solution of the desired starting concentration of each test compound in duplicate in row A of a v-bottom microtiter plate. Six 3-fold serial dilutions (from row B to G) were made into the HBSS assay buffer (9.8 g/L Hank's Balance Salts (Sigma; H-1387), 2.6 g/L HEPES (10 mM) (Sigma; H-3375), 0.35 g/L NaHCO3 (4.2 mM) (Sigma; S-6297), pH to 7.4 with 5N NaOH) (with the appropriate amount of DMSO so that the DMSO concentration remains constant at all dilutions). The resulting “compound” plate contained serial dilutions of six compounds in duplicate.
^3H-GABA was diluted into HBSS buffer to a final concentration of 4,000 cpm/μl. Enough solution was prepared to allow addition of 25 μl/well (the final concentration was 100,000 cpm/well).
HEK-TREx-hTAUT cells, plated in 96-well plates and treated with tetracycline (or tet analog (e.g., doxycycline), were removed from the incubator. Growth media was removed from the cells, and the cells were washed twice in room temperature HBSS (100 μl/well/wash) using a 96-well plate washer (Bio Tek ELX405). Alternatively, cells were washed manually with equivalent volumes using a multichannel pipettor. Immediately before beginning the assay, the final 100 μl wash solution was removed from the cells by aspiration.
Using a 96-well pipettor, 25 μl from the “compound” plate was added to each well of the cell plate. The assay was started by adding 25 μl of the ^3H-GABA working solution. The plate was incubated at room temperature for 15 minutes. The assay was stopped by washing the cells four times with ice-cold HBSS buffer using a ELX 405 plate washer (100 μl buffer/well/wash) having an angled buffer dispenser.
Scintillation fluid (200 μl) (Optiphase Supermix (Perkin Elmer) was added to each well, and the plate was covered with a 96-well adhesive plate cover and placed on a shaker for 10 minutes. The plates were counted on a 96-well plate scintillation counter for 60 sec/well. The data were analyzed using a sigmoidal dose response curve-fitting program ((Prism, GraphPad, Inc, San Diego, Calif.; equation: one-site competition).
FIG. 7 depicts the results of a competition experiment using HEK-TREx-TAUT1 cells. ^3H-taurine was used as the substrate and unlabeled taurine was used as the competitor. The competition experiment was performed as described in Example 7. Non-specific uptake was determined by measuring the uptake into cells not induced to express the transporter (“no tet”). […] In control cells, uptake of labeled taurine remained at background levels and was largely unaffected by an excess of unlabeled taurine.
These four compounds, IAA, R,S-Baclofen, GPA, and GABA, were tested in both competition and direct uptake assays. One notable difference in the competition assay format compared to the literature is that ^3H-GABA was used, rather than ^3H-taurine, as the radiolabel. […] Therefore, to develop a competition assay that is as sensitive as possible, ^3H-GABA, a substrate with a much […] affinity, was used.

## O=C(O)Cc1c[nH]cn1 [IAA, 4-imidazole acetic acid]
  IC50: 56 µM

## NCCCC(=O)O [GABA, γ-aminobutyric acid]
  IC50: 54 µM

## N=C(N)NCCC(=O)O [GPA]
  IC50: 24 µM
  pIC50: 4.7

## NCC(CC(=O)O)c1ccc(Cl)cc1 (stereo not drawn) [R,S-Baclofen]
  IC50: 1100 µM
  pIC50: 3.0
